Results on one compound are retold here after publication PMC7570852, “Ruthenium(II)/(III) DMSO-Based Complexes of 2-Aminophenyl Benzimidazole with In Vitro and In Vivo Anticancer Activity” (Molecules, 2020).

Experiment [1] relates to Ehrlich ascites carcinoma (EAC) cells. The experiment in a line: EAC cytotoxicity assay in vitro (trypan blue exclusion). In kind it is cell-based, mouse. To be noted: 2 h at 37 °C. The procedure:
The cytotoxicity determination of compound (2) against EAC cells was calculated by the trypan blue exclusion method. The EAC cells were aspirated from the mouse’s peritoneal cavity by a sterile syringe and immediately transferred into a sterile falcon tube. Then, the cells were washed with sterile PBS to remove any serum or blood traces and centrifuged for 3 min, after which the supernatant was removed. After washing 2–3 times with PBS, the cell pellet was aspirated into a sterile falcon tube and every 1 mL of cell pellet was resuspended in 9 mL of sterile PBS until a concentration of […] in 0.1 mL was achieved, as determined with a hemocytometer; where 0.1 mL of cell suspension was added to 0.880 mL PBS then 20 μL of trypan blue was added. The cells’ viability was checked using a hemocytometer and found to be greater than 98%. […] Cells were visualized and counted under the microscope. For each sample at least 500 cells were counted, and the percent of dead to live cells was calculated. […] The percentage of cell viability was calculated using Equations (5) and (6):(5) % Cytotoxicity=Tdead−Cdead/Ttotal×100% % Viability = 100 − % Cytotoxicity(6) where Tdead is the number of dead cells in the treated tube, Cdead is the number of dead cells in the control tube, and Ttotal is the total number of cells (dead + live) in the treated tube.

The test system of a further experiment is CT DNA (EB-DNA adduct). The experiment in a line: Ethidium bromide (EB-DNA) competitive fluorescence assay. To be noted: [DNA] = [EB] = 5 μM. Format: binding, calf. As to the method:
The binding affinity of the metal complexes towards CT DNA was evaluated using competitive fluorescence studies. CT DNA pretreated with ethidium bromide (EB) ([DNA] = [EB] = 5 μM) in Tris-HCl/NaCl buffer (pH = 7.2) was incubated with the complexes in concentrations of 0–90 μM. […] The quenching of EB-DNA adduct fluorescence was followed by monitoring the emission spectra in the wavelength range of 530–650 nm. Upon addition of the metal complexes to the EB-DNA adduct, the quenching binding constant (Kq) at λ = 585 nm is determined from the Stern-Volmer Equation (2):I0/I = 1 + Kq[Q](2) where I0 and I are the fluorescence intensities of EB-DNA in the […] of the metal complexes, respectively, [Q] is the concentration of the tested compounds, and Kq is the quenching constant calculated from the slope of the straight line obtained from plotting Io/I vs. [Q]. In addition, the apparent binding constant can be calculated from Equation (3):KEB[EB] = Kapp[Q](3) where KEB = 1 × 10^7 M^−1 [EB] is the ethidium bromide concentration (5 μM) and [Q] is the concentration of the quencher that provides a 50% intensity reduction of the initial EB-DNA adduct.

The test system of a further experiment is Bax gene expression. Nature of the experiment: Real-time qPCR of liver tissue, Bax. In kind it is in vivo. As to conditions: liver tissue of EAC-bearing mice, vs untreated. The procedure:
(§1) RNA was isolated from liver tissues using a RNeasy Mini kit. The integrity and purity of RNA were assessed by 1% agarose gel electrophoresis and nanodrop, respectively. The obtained RNA was reverse transcribed to yield cDNA using Quantiscript reverse transcriptase. Specific primers for Bax, caspase 3, and Bcl2 genes in addition to the housekeeping gene, β actin were designed by the Primer 3 web-based tool based on the published mice sequences (Table 5). Quantitative real-time PCR (qPCR) was performed using QuantiTect SYBR Green qPCR Master Mix in a StepOnePlus real-time PCR system and the melting curve condition and fold change calculation were done as previously described.

The next experiment concerns SOD, GSH, CAT, TAC. The experiment in a line: Oxidative stress markers in serum of EAC-bearing mice. In kind it is in vivo. The procedure: The mice were divided into the following eight groups (10 mice in each group): • Control group: Mice were intraperitoneally injected with a vehicle (2% DMSO + sterile saline) for 12 days. • I, II, and III control groups: Healthy normal mice were intraperitoneally injected with 6, 12, and 18 mg/kg of complex (2), respectively, for 12 days. • EAC group: Mice were intraperitoneally injected by a single dose of 2.5 × 10^6 viable Ehrlich ascites carcinoma (EAC) cells in PBS. In brief, EAC cells were withdrawn from the EAC mouse’s intraperitoneal cavity, washed, and centrifuged three times with sterile saline. Then, the pellets were suspended in sterile PBS and counted by the trypan blue exclusion assay, which confirmed that the viability of the cells was 98%. • I, II, and III treated groups: Firstly, 30 healthy mice were intraperitoneally injected with a single dose of 2.5 × 10^6 viable EAC cells. After one day; the mice were divided into I, II, and III treated groups (10 mice each group), intraperitoneally injected with 6, 12, and 18 mg/kg Ru(III) complex, respectively, for 12 days.
The animals were monitored for EAC growth by measuring abdominal size. At the end of the experiment all animals were fasted overnight then sacrificed. Serum samples were collected to study the biological parameters such as liver and kidney function as well as antioxidant enzyme activity. Liver samples from each group were frozen immediately in liquid nitrogen for molecular analysis.
The SOD activity in serum samples was evaluated as described by Dechatelet et al.. GSH was assayed in serum samples by detection of a yellow colored product following a reaction with 5,5’-dithiobis(2-nitrobenzoic acid) (DTNB). The catalase activity was estimated according to Aebi. Total antioxidant capacity (TAC) was determined by the method of Koracevic et al..

The subject of another experiment is Bcl2 gene expression. The experiment in a line: Real-time qPCR of liver tissue, Bcl2. Format: in vivo. To be noted: liver tissue of EAC-bearing mice, vs untreated. As to the method:
as §1

Another experiment concerns MCF7 cells. Nature of the experiment: DNA fragmentation (agarose gel), MCF7. Format: cell-based, human. To be noted: MCF7, 117.6 µg/mL, 4 h. The procedure: MCF7 and Caco2 cells were collected and genomic DNA was extracted using a Gene JET genomic DNA extraction kit following the manufacturer’s protocol (Thermo Scientific, #K0721). The extracted DNA samples were run on a 1.5% agarose gel at 50 V for 2 h and the fragment pattern was visualized by ethidium bromide staining under a UV transilluminator.

Setting [2] is: three treated groups vs untreated EAC group.

SMILES strings stand for the structures.

Regarding `CS(C)=O.Nc1ccccc1-c1nc2ccccc2[nH]1.O.[Cl][Ru]([Cl])[Cl]` [(2), [Ru(III)Cl3(DMSO)(Hapbim)]·H2O], the “IC50 against EAC cells” value in experiment [1] amounted to 70 ± 1 µg/mL. Further, in the experiment with CT DNA (EB-DNA adduct) (KEB = 1 × 10^7 M^−1), the “Kapp (apparent binding constant)” value is 1.72 ± 0.28 × 10^7 M^−1. The “Kq (quenching constant)” value in the experiment on CT DNA (EB-DNA adduct) (Stern-Volmer, 585 nm) is on record as 8.64 ± 0.15 × 10^3 M^−1. The “Bax mRNA level” value in the experiment with Bax gene expression was “significant increases”. Moreover, in the experiment with SOD, GSH, CAT, TAC (I (6 mg/kg), II (12 mg/kg), III (18 mg/kg) treated groups vs untreated EAC group), the SOD levels result is “elevated”. In the experiment with SOD, GSH, CAT, TAC (setting [2]), the CAT levels entry was “increased” and the GSH levels entry was “increased”. Moreover, in the experiment with SOD, GSH, CAT, TAC (three treated groups vs untreated EAC group, p < 0.0001), the “total antioxidant capacity (TAC)” value was “significantly increased”. For the same compound, the Bcl2 gene expression result with Bcl2 gene expression was “significant dose-dependent reduction”. Further, in the experiment on MCF7 cells, the DNA fragmentation result is listed as “distinct DNA laddering”.
